We go through 1 compound from paper PMC3909494 (Molecular cell, 2013).

The experiment deals with T1, TmMre11 (Thermotoga maritima Mre11 (1–324)) (Thermotoga maritima, UniProt Q9X1X0).
T1 sequence (Q9X1X0 1-324): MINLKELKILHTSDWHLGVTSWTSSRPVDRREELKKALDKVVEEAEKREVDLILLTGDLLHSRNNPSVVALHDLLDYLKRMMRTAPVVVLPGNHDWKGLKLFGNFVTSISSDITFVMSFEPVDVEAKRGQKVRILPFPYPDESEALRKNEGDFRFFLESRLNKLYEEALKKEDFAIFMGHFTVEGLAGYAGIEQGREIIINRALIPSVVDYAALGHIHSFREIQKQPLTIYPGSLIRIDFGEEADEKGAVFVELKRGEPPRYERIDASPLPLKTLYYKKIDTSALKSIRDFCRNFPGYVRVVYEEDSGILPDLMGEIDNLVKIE
The experiment in a line: exonuclease assay. Type of experiment: biochemical. Conditions: conditions only in supplement.

`N=C1NC(=O)/C(=C/c2ccc(O)cc2)S1` [mirin]: the “inhibition of exonuclease activity” value is on record as “Nuclease assays using TmMre11”.
